Common to all, as to experiment: In vitro cell growth inhibition assay (MTT)
Holding throughout (assay type): cell-based, human

One assay concerns MDA-MB-231. The settings on record: MDA-MB-231 human breast cancer cell line, 48 h, MTT; read-out: IC50 MDA-MB-231. The procedure:
(§1) 5000 tumor cells per well were seeded into 96-well plate and allowed to adhere overnight. Cells were treated with various concentrations of tested compounds or DMSO (0.2%, as negative control) for 48 h. Then, the medium along with tested compounds or DMSO was discarded and […] per well MTT containing medium (0.5 mg/mL) was added. After incubation at 37° C. for 4 h, the MTT-containing medium was replaced by DMSO (150 μL per well) to dissolve the formazan crystals. Absorbance of the resulting solution was measured by microplate reader (Biotech ELx800) at 540 nm wavelength. Growth inhibition rates were calculated with the absorbance. Half maximal inhibitory concentration (IC50) of each compound was calculated using GraphPad Prism, version 6.0.

A further assay deals with A2780. The settings on record: A2780 human ovarian cancer cell line, 48 h, MTT; read-out: IC50 A2780. The procedure:
as §1

Another assay concerns Hela. The following applies: Hela human cervical cancer cell line, 48 h, MTT; read-out: IC50 Hela. As to the method: as §1
Another assay deals with SKOV3. The following applies: SK-OV-3; SKOV-3 human ovarian cancer cell line, 48 h, MTT; read-out: IC50 SKOV3. As to the method:
as §1

Turning to `COc1ccc([C@H]2[C@@H](CNCc3ccccc3)C(=O)N2c2cc(OC)c(OC)c(OC)c2)cc1O` [Compound 63, (3R,4R)-3-((benzylamino)methyl)-4-(3-hydroxy-4-methoxyphenyl)-1-(3,4,5-trimethoxyphenyl)azetidin-2-one], the concentration for half-maximal inhibition (IC50) (usually the midpoint of a concentration-inhibition curve) with MDA-MB-231 turned out to be 1790 nM; in the assay with A2780, 1020 nM; in the assay on Hela, 2270 nM; in the assay on SKOV3, 1670 nM.

Turning to `COc1ccc([C@H]2[C@@H](OC(=O)CCC(=O)O)C(=O)N2c2cc(OC)c(OC)c(OC)c2)cc1O` [Compound 64, 4-(((2S,3R)-2-(3-hydroxy-4-methoxyphenyl)-4-oxo-1-(3,4,5-trimethoxyphenyl)azetidin-3-yl)oxy)-4-oxobutanoic acid], the IC50 worked out at 102 nM with MDA-MB-231, 79 nM with A2780, 178 nM in the assay on Hela and 210 nM with SKOV3.

Take `CCOC(=O)CO[C@H]1C(=O)N(c2cc(OC)c(OC)c(OC)c2)[C@H]1c1ccc(OC)c(O)c1` [Compound 65, ethyl 2-(((2S,3R)-2-(3-hydroxy-4-methoxyphenyl)-4-oxo-1-(3,4,5-trimethoxyphenyl)azetidin-3-yl)oxy)acetate]: the half-maximal inhibitory concentration (IC50) with MDA-MB-231 was 672 nM; with A2780 it was 423 nM; with Hela, 669 nM; in the assay with SKOV3, 721 nM.

For the molecule `COc1ccc([C@H]2[C@H](Br)C(=O)N2c2cc(OC)c(OC)c(OC)c2)cc1O` [Compound 66, (3S,4S)-3-bromo-4-(3-hydroxy-4-methoxyphenyl)-1-(3,4,5-trimethoxyphenyl)azetidin-2-one], the IC50 in the assay on MDA-MB-231 was 10 nM; in the assay on A2780, 8 nM; in the assay with Hela, 13 nM; with SKOV3 it was 9 nM.

As to `COc1ccc([C@H]2CC(=O)N2c2cc(OC)c(OC)c(OC)c2)cc1O` [Compound 67, (R)-4-(3-hydroxy-4-methoxyphenyl)-1-(3,4,5-trimethoxyphenyl)azetidin-2-one], the IC50 is 28 nM in the assay with MDA-MB-231, 22 nM with A2780, 30 nM in the assay on Hela and 24 nM with SKOV3.

With `COc1ccc([C@H]2[C@H](NC(C)=O)C(=O)N2c2cc(OC)c(OC)c(OC)c2)cc1O` [Compound 77, N-((2S,3S)-2-(3-hydroxy-4-methoxyphenyl)-4-oxo-1-(3,4,5-trimethoxyphenyl)azetidin-3-yl)acetamide], the IC50 in the assay with MDA-MB-231 came to 47 nM; in the assay with A2780, 33 nM; in the assay on Hela it was 35 nM; with SKOV3, 32 nM.

For the molecule `COc1ccc([C@H]2[C@H](NC(=O)c3ccccc3)C(=O)N2c2cc(OC)c(OC)c(OC)c2)cc1O` [Compound 78, N-((2S,3S)-2-(3-hydroxy-4-methoxyphenyl)-4-oxo-1-(3,4,5-trimethoxyphenyl)azetidin-3-yl)benzamide], the IC50 in the assay with MDA-MB-231 turned out to be 47 nM; in the assay with A2780, 27 nM; with Hela, 24 nM; with SKOV3, 45 nM.

`COc1ccc([C@H]2[C@H](NS(C)(=O)=O)C(=O)N2c2cc(OC)c(OC)c(OC)c2)cc1O` [Compound 79, N-((2S,3S)-2-(3-hydroxy-4-methoxyphenyl)-4-oxo-1-(3,4,5-trimethoxyphenyl)azetidin-3-yl)methanesulfonamide]: the concentration for half-maximal inhibition (IC50) in the assay with MDA-MB-231 turned out to be 254 nM; in the assay with A2780, 164 nM; in the assay on Hela it was 192 nM; with SKOV3, 231 nM.

In the case of `COc1ccc([C@@H]2N(c3cc(OC)c(OC)c(OC)c3)C(=O)[C@]2(O)CO)cc1O` [Compound 80, (3R,4S)-3-hydroxy-4-(3-hydroxy-4-methoxyphenyl)-3-(hydroxymethyl)-1-(3,4,5-trimethoxyphenyl)azetidin-2-one], the IC50 with MDA-MB-231 was determined as 4470 nM; in the assay with A2780, 1770 nM; in the assay on Hela, 3420 nM; in the assay with SKOV3, 3000 nM.

Turning to `COC[C@@]1(OC)C(=O)N(c2cc(OC)c(OC)c(OC)c2)[C@H]1c1ccc(OC)c(O)c1` [Compound 81, (3R,4S)-4-(3-hydroxy-4-methoxyphenyl)-3-methoxy-3-(methoxymethyl)-1-(3,4,5-trimethoxyphenyl)azetidin-2-one], the IC50 in the assay on MDA-MB-231 amounted to 2650 nM; with A2780, 1750 nM; in the assay on Hela, 2560 nM; with SKOV3, 2470 nM.

Turning to `C=C1C(=O)N(c2cc(OC)c(OC)c(OC)c2)[C@H]1c1cccc(O)c1` [Compound 85, (S)-4-(3-hydroxyphenyl)-3-methylene-1-(3,4,5-trimethoxyphenyl)azetidin-2-one], the IC50 was found to be 6640 nM in the assay on MDA-MB-231, 10500 nM in the assay with A2780, 15000 nM in the assay with Hela and 14500 nM in the assay with SKOV3.

With `C=C1C(=O)N(c2cc(OC)c(OC)c(OC)c2)[C@H]1c1cccc(OC)c1` [Compound 86, (S)-4-(3-methoxyphenyl)-3-methylene-1-(3,4,5-trimethoxyphenyl)azetidin-2-one], the 50% inhibitory concentration (IC50) in the assay on MDA-MB-231 is 6320 nM; in the assay on A2780, 2290 nM; with Hela it was 12300 nM; with SKOV3, 8180 nM.

Consider `C=C1C(=O)N(c2cc(OC)c(OC)c(OC)c2)[C@H]1c1ccc(C)cc1` [Compound 87, (S)-3-methylene-4-(p-tolyl)-1-(3,4,5-trimethoxyphenyl)azetidin-2-one], for which the IC50 in the assay on MDA-MB-231 was determined as 193 nM; in the assay on A2780, 127 nM; with Hela, 209 nM; with SKOV3, 265 nM.

On to `C=C1C(=O)N(c2cc(OC)c(OC)c(OC)c2)[C@H]1c1ccc(C(C)C)cc1` [Compound 88, (S)-4-(4-isopropylphenyl)-3-methylene-1-(3,4,5-trimethoxyphenyl)azetidin-2-one], for which the IC50 came to 2550 nM in the assay on MDA-MB-231, 2120 nM with A2780, 2210 nM with Hela and 2470 nM in the assay on SKOV3.

Regarding `C=C1C(=O)N(c2cc(OC)c(OC)c(OC)c2)[C@H]1c1ccc(OC)c(OC(=O)c2ccc(OC)cc2)c1` [Compound 96, (S)-2-methoxy-5-(3-methylene-4-oxo-1-(3,4,5-trimethoxyphenyl)azetidin-2-yl)phenyl 4-methoxybenzoate], the IC50 is 284 nM in the assay with MDA-MB-231, 125 nM in the assay on A2780, 139 nM in the assay on Hela and 258 nM in the assay on SKOV3.

Consider `C=C1C(=O)N(c2cc(OC)c(OC)c(OC)c2)[C@@H]1c1ccc(OC)c(O)c1` [Compound 98, (R)-4-(3-hydroxy-4-methoxyphenyl)-3-methylene-1-(3,4,5-trimethoxyphenyl)azetidin-2-one], for which the IC50 in the assay with MDA-MB-231, with A2780, in the assay on Hela and in the assay with SKOV3 was greater than 20000 nM each time.

On to `COc1ccc([C@@H]2[C@H](C)C(=O)N2c2cc(OC)c(OC)c(OC)c2)cc1O` [Compound 101, (3S,4S)-4-(3-hydroxy-4-methoxyphenyl)-3-methyl-1-(3,4,5-trimethoxyphenyl)azetidin-2-one], for which the IC50 with MDA-MB-231 turned out to be 5140 nM; in the assay on A2780 it was 5750 nM; in the assay on Hela it was 3920 nM; in the assay on SKOV3, 3270 nM.

With `COc1ccc([C@@H]2[C@@H](C)C(=O)N2c2cc(OC)c(OC)c(OC)c2)cc1O` [Compound 102, (3R,4S)-4-(3-hydroxy-4-methoxyphenyl)-3-methyl-1-(3,4,5-trimethoxyphenyl)azetidin-2-one], the IC50 in the assay with MDA-MB-231 amounted to 1080 nM; in the assay with A2780, 771 nM; with Hela, 807 nM; in the assay with SKOV3 it was 650 nM.

`COc1ccc([C@H]2[C@@H](C)C(=O)N2c2cc(OC)c(OC)c(OC)c2)cc1N` [Compound 103, (3R,4R)-4-(3-amino-4-methoxyphenyl)-3-methyl-1-(3,4,5-trimethoxyphenyl)azetidin-2-one]: the IC50 in the assay with MDA-MB-231 worked out at 81 nM; in the assay with A2780, 78 nM; in the assay with Hela, 61 nM; in the assay with SKOV3 it was 77 nM.

In the case of `COc1ccc([C@H]2[C@H](C)C(=O)N2c2cc(OC)c(OC)c(OC)c2)cc1N` [Compound 104, (3S,4R)-4-(3-amino-4-methoxyphenyl)-3-methyl-1-(3,4,5-trimethoxyphenyl)azetidin-2-one], the half-inhibitory concentration (IC50) in the assay with MDA-MB-231 came to 32 nM; in the assay with A2780, 20 nM; in the assay with Hela, 37 nM; in the assay with SKOV3 it was 25 nM.

For `COc1ccc([C@@H]2N(c3cc(OC)c(OC)c(OC)c3)C(=O)C23CC3)cc1O` [Compound 105, (S)-6-(3-hydroxy-4-methoxyphenyl)-5-(3,4,5-trimethoxyphenyl)-5-azaspiro[2.3]hexan-4-one], the IC50 worked out at 326 nM with MDA-MB-231, 302 nM in the assay with A2780, 436 nM in the assay with Hela and 388 nM with SKOV3.

With `CC[C@H]1C(=O)N(c2cc(OC)c(OC)c(OC)c2)[C@H]1c1ccc(OC)c(O)c1` [Compound 106, (3R,4R)-3-ethyl-4-(3-hydroxy-4-methoxyphenyl)-1-(3,4,5-trimethoxyphenyl)azetidin-2-one], the IC50 was 286 nM in the assay on MDA-MB-231, 250 nM in the assay on A2780, 320 nM in the assay on Hela and 215 nM in the assay with SKOV3.

With `C=C1C(=O)N(c2cc(OC)c(OC)c(OC)c2)[C@H]1c1ccc(OC)c(OS(=O)(=O)F)c1` [Compound 107, (S)-2-methoxy-5-(3-methylene-4-oxo-1-(3,4,5-trimethoxyphenyl)azetidin-2-yl)phenyl sulfofluoridate], the IC50 with MDA-MB-231 was 216 nM; with A2780, 121 nM; with Hela, 174 nM; in the assay with SKOV3, 178 nM.

Values taken from patent publication US20200392150A1, “Diaryl-B-Lactam Compound and Preparation Method and Pharmaceutical Use Thereof” (Fudan University, priority 2016, published 2020).
